Source: patent EP4813463A2, “TYK2 INHIBITORS AND COMPOSITIONS AND METHODS THEREOF” (Lynk Pharmaceuticals Co. Ltd., priority 2023, dated 2024)
pIC50: −log10 of the molar value. Values after ≈ are worked out from the molar mass of the structure shown. Read-outs that look alike come from different tables or passages of the source.

Legend:
Kinetic solubility = format: physicochemical; details: phosphate buffer, pH 7.4, aqueous buffer, kinetic from dmso stock, 100 mM pH 7.4 phosphate buffer, 1% DMSO, room temperature, read-out: Kinetics Solubility_PBS7.4
Description: Aliquots of 8 µL of reference and test compound stock solutions (10 mM/5 mM) are added into 792 µL of 100 mM pH 7.4 phosphate buffer. The final DMSO concentration is 1%. Sample tubes are shaken for 2 hours at 1000 rpm at room temperature. Samples are centrifuged at 12000 rpm for 10 min to precipitate un-dissolved particles. And transfer the supernatants to a new tube or plate. Add 5 µL of samples (no diluted, 10 times diluted, and 100 times diluted) and standard curve samples to 95 µL of ACN containing IS for LC-MS/MS analysis. Kinetic Solubilities Values of Exemplary Compounds

TYK2-JH2 domain = molecular target: T1, TYK2-JH2 domain (Homo sapiens, UniProt P29597); assay: Binding activity test for JH2 domain of TYK2 (Tb-antibody/tracer FRET); details: for pIC50: JH2 domain enzyme, 60 min at 25°C, then 4°C overnight, read-out: TYK2 JH2 Binding IC50; for JAK1/TYK2 selectivity: ratio of JAK1 JH2 to TYK2 JH2 binding IC50
T1 construct: JAK1-JH2 domain or TYK2-JH2 domain enzyme in assay buffer
T1 sequence (P29597 589-875 limits assumed): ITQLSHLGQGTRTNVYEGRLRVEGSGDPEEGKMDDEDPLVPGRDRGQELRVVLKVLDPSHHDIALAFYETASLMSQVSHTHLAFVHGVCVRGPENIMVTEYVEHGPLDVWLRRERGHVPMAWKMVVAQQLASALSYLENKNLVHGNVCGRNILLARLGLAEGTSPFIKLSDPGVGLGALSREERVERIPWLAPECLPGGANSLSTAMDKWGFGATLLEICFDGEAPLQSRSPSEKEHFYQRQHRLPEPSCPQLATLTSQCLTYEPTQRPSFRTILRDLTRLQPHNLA
How it was run: (§1)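 IC50 values (nM) come from TR-FRET readings taken after a 25°C incubation followed by overnight at 4°C. Each well held JH2 domain protein, Tb-antibody, tracer and test compound titrated in 11 threefold steps, with DMSO high and low controls.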

JAK1-JH2 domain = molecular target: T2, JAK1-JH2 domain (Homo sapiens, UniProt P23458); assay: Binding activity test for JH2 domain of JAK1 (Tb-antibody/tracer FRET); details: JH2 domain enzyme; 60 min at 25°C, then 4°C overnight; read-out: JAK1 JH2 Binding IC50
T2 construct: JAK1-JH2 domain or TYK2-JH2 domain enzyme in assay buffer
T2 sequence (P23458 583-855 limits assumed): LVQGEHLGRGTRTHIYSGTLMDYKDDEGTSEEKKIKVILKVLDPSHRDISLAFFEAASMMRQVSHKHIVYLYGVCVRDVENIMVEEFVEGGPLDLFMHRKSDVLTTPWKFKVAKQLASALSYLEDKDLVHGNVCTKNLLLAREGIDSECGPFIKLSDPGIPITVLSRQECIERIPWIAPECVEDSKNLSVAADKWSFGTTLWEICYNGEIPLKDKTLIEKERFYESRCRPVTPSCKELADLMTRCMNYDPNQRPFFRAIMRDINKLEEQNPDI
How it was run: as §1

[1] = Microsomal metabolic stability assay; format: in vitro ADME; details: human, liver microsomes, pH 7.4, 0.5 mg/mL microsomal protein, 1 µM test article, 2 mM NADPH; for microsomal CLint at 1 µM: read-out: Human LM Clint; for half-life at 1 µM: read-out: Human LM T1/2
How it was run: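 Test or control compound (1 µM) incubated with microsomes (0.5 mg/mL protein) in 100 mM potassium phosphate pH 7.4, 1.0 mM EDTA at 37°C, started with NADPH regenerating system (2 mM NADPH). Sampled at 0, 5, 15, 30, 45 min, acetonitrile-quenched, LC/MS/MS. T1/2 from ln %remaining vs time slope; CLint = 0.693/T1/2 per mg protein/mL.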

pSTAT1 = assay: Phosphorylation inhibition of STAT in human whole blood (IFN-alpha stimulated, flow cytometry); format: cell-based; details: T-cell, 20 min, IFN-alpha stimulation 20 mins, CD3 T cells, read-out: pSTAT1 inhibition in hWB (IC50)
Description: The inhibitory potential of test articles in human whole blood assay was evaluated by the method of flow cytometry.
IFN-alpha will activate JAK1 and TYK2 kinase in T cells by binding to IFN receptors, and then lead to phosphorylation of STAT1 and STAT2. The phosphorylated STAT1 enter nuclear and promote transcription and expression of IFN-gamma. To evaluate the efficacy of TYK2i in T cells, freshly collected human whole blood will be stimulated with certain unit of human IFN-alpha (Universal Type I IFN(1MU), R&D, 11200-2) for 20 mins in incubator. After stimulation, fix cells with Phosflow™ Fix Buffer I (BD, 557870), and then collect fixed cells by centrifugation (500 g, 8min). Wash cells once with pre-cooled PBS, and then permeabilize cells with cold Perm Buffer III buffer (BD, 558050) for 45 mins on ice. Collect cells by centrifugation (600 g, 8min) and washed twice with cold PBS. Stain cells with anti-human CD3(FITC Mouse Anti-Human CD3, BD, 555332) and anti-pSTAT1_Y701(Alexa Fluor 647 Mouse Anti-Stat1 (pY701), BD, 612597) antibodies. Detect pSTAT1 by flow cytometry (CytoFlex S) and analyze data with FlowJo and GraphPad Prism 8 software. IC50 values of test articles were determined using 4- parameter logistic equation.

[2] = tested on: Ba/F3-FL-TYK2-P760L cells; assay: Anti-proliferative assay in engineered Ba/F3 cells (Cell-Titer Glo, 72 h); format: cell-based; details: Mus musculus, BaF3, 72 h, 72 h compound treatment, concentration that causes 50% growth inhibition, read-out: Baf3-FL-T2P760L
How it was run: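 IC50 from luminescent ATP viability after 72 h compound exposure (37 °C, 5% CO2), % inhibition normalised to DMSO-treated cells minus medium blank. IL-3-free Ba/F3-FL-TYK2-P760L (Tel-JAK fusion) cells in 10% FBS RPMI-1640 received 9 three-fold doses, top 20 µM, 0.1% DMSO.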

TYK2 pathway = assay: IFN-γ release in NK92 cells stimulated by IL-12 (ELISA); format: cell-based; details: IL-12 2.5ng/mL stimulation 15hrs, IFN-γ in supernatant by ELISA
Description: IFN-γ Release in NK92 Cells Stimulated by IL-12
Purpose: To evaluate the inhibition activity of TYK2 inhibitors in NK92 cells on TYK2 pathway through ELISA method.
Procedure: 1) Seeding NK92 cells into 96-well plate, cell density is 1.5E5 cells/well, 100uL/well; 2)Add prepared test articles into indicated wells, 50uL/well, and continue incubate for 1h, at 37°C; 3) After compound treatment, add 50uL/well IL-12 into indicated wells, final concentration of IL-12 is 2.5ng/mL; 4)Incubate cytokine stimulated cells at 37°C for another 15hrs in CO2 incubator; 5) After cytokine stimulation, transfer culture supernatant into a new plate and centrifuge for 5min at 350x g, and detect IFN-γ concentration in the supernatant with ELISA kit; 6) Data analysis with GrapdPad Prism6.0 software. Table 5. IC50 Values of Exemplary Compounds on TYK2 Pathway

Caco-2 cell permeability = format: in vitro ADME; details: human, Caco-2, 10.0 µM, no p-gp inhibitor; for Papp A→B at 90 min, 10 µM: A to B; for Papp B→A at 90 min, 10 µM: B to A; for efflux ratio at 90 min, 10 µM: read-out: Efflux Ratio: Papp(B-A)/Papp(A-B)
Description: Compounds permeability was evaluated using Caco-2 cell lines. HBSS buffer was used as transfer buffer. Appropriate dosing and receiver solutions were applied to the donor and receiver chambers to initiate the transport assay in apical to basolateral (A to B) or basolateral to apical (B to A) directions. Compounds were tested at 10.0 µM in the absence of p-gp inhibitor bidirectionally in duplicates. After incubation at 37°C for 90 mins, donor and receiver samples were analyzed by LC-MS/MS. The intestinal absorption potential was assessed using Papp value and efflux ratio.

[3] = Brain pharmacokinetic studies in rats; format: in vivo, Sprague-Dawley rats
Description: Pharmacokinetic profiles of test articles were evaluated in fasted Sprague-Dawley rats. Different kinds of formulations were designed to ensure test articles fully dissolved and wouldn't precipitate in 1:10 SGF or FaSSIF dilution. Typically, Rats were dosed with 3 mg/kg and 5 mg/kg by intravenous injection and oral gavage, respectively. The animal was restrained manually at the designated time points, approximately 150 µL of blood sample was collected via jugular vein for serial bleeding into K2EDTA tubes. The blood samples were maintained in wet ice first and centrifuged to obtain plasma (2000g, 4°C, 5 min) within 30 minutes post sampling. Anesthetizing the rat with the Isoflurane vaporizer to 2%~3% and place its back on the operation table. Spread the animal limbs and pin the limbs on the operation table. Make a cut along the sternum about 4cm long, low enough to expose the sternum's end. Expose the heart and use a 25-gauge needle connected with a 20 mL syringe filled with 20 mL of cold saline to pierce the left ventricle. Maintain the placement of the needle, and slowly push the syringe plunger to wash the brain with saline. The perfusion will be finished within about 2 min and then take the brain out of the body carefully without damaging the tissue. Dry the tissue on filtrate paper, which should be placed on ice, and then weigh the brain tissue and store at -70 °C and analyzed by LC/MS/MS for quantification. PK parameter values, including, but not necessarily limited to, the maximum plasma concentrations (Cmax), and the area under the plasma concentration vs. time curve (AUC) from time zero to 24-hour (AUC0-24h) were determined using WinNonlin program. Table 13. Systemic Pharmacokinetic Parameters in Sprague-Dawley Rats

SMILES	solubility kinetic at 2 h (Kinetic solubility) [µM]	pIC50 (TYK2-JH2 domain)	JAK1/TYK2 selectivity (TYK2-JH2 domain)	pIC50 (JAK1-JH2 domain)	microsomal CLint at 1 µM [1] [µL/min/mg]	half-life at 1 µM [1] [h]	pIC50 (pSTAT1)	pIC50 [2]	pIC50 (TYK2 pathway)	Papp A→B at 90 min, 10 µM (Caco-2 cell permeability) [×10⁻⁶ cm/s]	Papp B→A at 90 min, 10 µM (Caco-2 cell permeability) [×10⁻⁶ cm/s]	efflux ratio at 90 min, 10 µM (Caco-2 cell permeability)	half-life ([3]; Sprague-Dawley, rat, brain, rats, iv, 3 mg/kg, solution) [min]	Kp ([3]; Sprague-Dawley, rat, brain, rats, iv, 3 mg/kg, solution, read-out: Brain AUC/Systemic AUC)	half-life ([3]; Sprague-Dawley, rat, systemic (plasma), rats, iv, 3 mg/kg, solution) [min]	AUC ([3]; Sprague-Dawley, rat, systemic (plasma), rats, iv, 3 mg/kg, solution, read-out: AUC) [ng·h/mL]	AUC ([3]; brain, rats, iv, 3 mg/kg, solution) [ng·h/g]	brain exposure in Rats ([3]; result in words)
[2H]C([2H])([2H])NC(=O)c1cnc(NC(=O)C2CC2)cc1Nc1nn(C)c2ccc(C(O)C(F)(F)F)c(OC)c12 (stereo not shown) [Example 49, 6-(Cyclopropanecarboxamido)-4-((4-methoxy-1-methyl-5-(2,2,2-tritluoro-1-hydroxyethyl)-1H-indazol-3-yl)amino)-N-(methyl-d3)nicotinamide]	83 (≈ 41.1 µg/mL)	9.87	30.13	8.39	15.7	1.47	7.56	9.14										
CCC(=O)c1cnc(NC(=O)C2CC2)cc1Nc1ccc2[nH]cnc2c1OC [Example 197, N-[4-[(4-Methoxy-1H-benzimidazol-5-yl)amino]-5-propanoyl-2-pyridyl] cyclopropanecarboxamide, reference compound]		8.57	6.41	7.76				6.37	6.29									
CCC(=O)c1cnc(NC(=O)C2CC2)cc1Nc1ccc2cn[nH]c2c1OC [Example 196, N-(4-((7-Methoxy-1H-indazol-6-yl)amino)-5-propionylpyridin-2-yl)cyclopropanecarboxamide, reference compound]		8.41	8.04	7.50			< 5.00		6.03									
CNC(=O)c1cnc(NC(=O)C2CC2)cc1Nc1nn(C)c2cccc(OC)c12 [Example 100, 6-(Cyclopropanecarboxamido)-4-((4-methoxy-1-methyl-1H-indazol-3-yl)amino)-N-methylnicotinamide]		9.01	116.4	6.95				6.30	7.06									
[2H]C([2H])([2H])NC(=O)c1cnc(NC(=O)C2CC2)cc1Nc1cnn2ccc(C(C)O)c(OC)c12 (stereo not shown) [Example 23, 6-(Cyclopropanecarboxamido)-4-((5-(1-hydroxyethyl)-4-methoxypyrazolo[1,5-a]pyridin-3-yl)amino)-N-(methyl-d3)nicotinamide]		9.73	72.7	7.87	0.17	132		6.78		0.46	37.6	82.7						
[2H]C([2H])([2H])NC(=O)c1cnc(NC(=O)C2CC2)nc1Nc1cnn2ccc([C@H](O)C(F)(F)F)c(OC)c12 [Example 33, (S)-2-(cyclopropanecarboxamido)-4-((4-methoxy-5-(2,2,2-trifluoro-1-hydroxyethyl)pyrazolo[1,5-a]pyridin-3-yl)amino)-N-(methyl-d3)pyrimidine-5-carboxamide]	59.4 (≈ 28.6 µg/mL)	10.09	418.3	7.46				7.80		0.39	46.5	121						
COC(=O)c1cnc(NC(=O)C2CC2)cc1Nc1cnn2ccc([C@H](OC)C(F)(F)F)c(OC)c12 [Example 42, Methyl (S)-6-(cyclopropanecarboxamido)-4-((4-methoxy-5-(2,2,2-trifluoro-1-methoxyethyl)pyrazolo[1,5-a]pyridin-3-yl)amino)nicotinate]		9.69	391.2	7.10				6.98					15	1.99	20.4	646	1286	good brain exposure
[2H]C([2H])([2H])NC(=O)c1cnc(Nc2ccc(F)cn2)cc1Nc1cnn2ccc([C@H](O)C(F)(F)F)c(OC)c12 [Example 24, (S)-6-((5-fluoropyridin-2-yl)amino)-4-((4-methoxy-5-(2,2,2-trifluoro-1-hydroxyethyl)pyrazolo[1,5-a]pyridin-3-yl)amino)-N-(methyl-d3)nicotinamide]	10.4 (≈ 5.27 µg/mL)	10.18	281.8	7.73	24.6	0.937	7.46	8.41										
